Results taken from BindingDB's records for doi:10.1016/S0960-894X(00)80255-3 (1991).

Molecular target: Tyrosine-protein kinase Lck (Homo sapiens, UniProt P06239)
Test: ChEBML_210745
Excerpt: Inhibitory concentration against phosphorylation of angiotensin I catalyzed by protein-tyrosine kinase p56lck

Chain of Tyrosine-protein kinase Lck (P06239 whole entry): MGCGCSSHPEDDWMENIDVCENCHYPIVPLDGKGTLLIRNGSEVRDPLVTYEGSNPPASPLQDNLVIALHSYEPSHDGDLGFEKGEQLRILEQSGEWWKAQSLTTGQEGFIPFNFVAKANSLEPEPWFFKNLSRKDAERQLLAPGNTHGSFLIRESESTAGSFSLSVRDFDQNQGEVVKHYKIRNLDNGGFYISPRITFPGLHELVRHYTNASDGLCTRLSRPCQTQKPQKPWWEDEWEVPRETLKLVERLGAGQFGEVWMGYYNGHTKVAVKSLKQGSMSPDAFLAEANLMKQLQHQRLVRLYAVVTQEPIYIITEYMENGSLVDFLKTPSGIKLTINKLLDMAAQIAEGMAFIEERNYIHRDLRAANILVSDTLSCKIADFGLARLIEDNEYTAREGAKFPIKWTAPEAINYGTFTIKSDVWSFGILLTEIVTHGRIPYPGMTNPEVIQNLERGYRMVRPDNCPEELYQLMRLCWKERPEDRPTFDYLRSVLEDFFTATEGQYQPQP

| IC50 [µM] | Compound |
| --- | --- |
| > 2510 | O=[N+]([O-])c1ccc(/N=N\Cc2cccc(O)c2O)c([N+](=O)[O-])c1 [3-[(2,4-Dinitro-phenyl)-hydrazonomethyl]-benzene-1,2-diol] |
| > 2900 | Brc1ccc(N=NCc2ccccn2)cc1 [N-(4-Bromo-phenyl)-N'-[1-pyridin-2-yl-meth-(E)-ylidene]-hydrazine] |
| 310 | COc1ccc(N=NCc2cccc(O)c2O)cc1 [3-[(4-Methoxy-phenyl)-hydrazonomethyl]-benzene-1,2-diol] |
| > 4060 | c1ccc(N=NCc2ccccn2)cc1 [N-Phenyl-N'-[1-pyridin-2-yl-meth-(E)-ylidene]-hydrazine] |
| > 2600 | Oc1ccc(Br)cc1CN=Nc1ccccc1 [4-Bromo-2-(phenyl-hydrazonomethyl)-phenol] |

Further lines, the molecule ahead of its results:

| Compound | IC50 [µM] |
| --- | --- |
| Brc1ccc(N=NCc2ccncc2)cc1 [N-(4-Bromo-phenyl)-N'-[1-pyridin-4-yl-meth-(E)-ylidene]-hydrazine] | > 2900 |
| COc1ccc(CN=Nc2ccc(Br)cc2)cc1O [5-[(4-Bromo-phenyl)-hydrazonomethyl]-2-methoxy-phenol] | > 2490 |
| Brc1ccc(N=NCc2cccnc2)cc1 [N-(4-Bromo-phenyl)-N'-[1-pyridin-3-yl-meth-(E)-ylidene]-hydrazine] | > 2900 |
| O=[N+]([O-])c1ccc(C/N=N/c2ccccc2)cc1 | > 3320 |
| O=[N+]([O-])c1cccc(C/N=N/c2ccccc2)c1 [N-[1-(3-Nitro-phenyl)-meth-(E)-ylidene]-N'-phenyl-hydrazine] | > 3320 |
| COc1ccc(N=NCc2cc(O)ccc2O)cc1 [2-[(4-Methoxy-phenyl)-hydrazonomethyl]-benzene-1,4-diol] | 310 |
| c1ccc(N=NCc2ccncc2)cc1 [N-Phenyl-N'-[1-pyridin-4-yl-meth-(E)-ylidene]-hydrazine] | > 4060 |
